Where a name gives a salt, the structure may show the parent alone.

T1 sequence (P03951 388-625 limits assumed): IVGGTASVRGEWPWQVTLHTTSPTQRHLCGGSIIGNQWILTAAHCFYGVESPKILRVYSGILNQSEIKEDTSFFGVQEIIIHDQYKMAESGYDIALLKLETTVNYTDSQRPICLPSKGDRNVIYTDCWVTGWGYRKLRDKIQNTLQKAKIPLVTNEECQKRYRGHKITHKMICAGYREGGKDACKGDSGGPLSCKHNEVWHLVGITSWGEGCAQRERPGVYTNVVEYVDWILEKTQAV
T1 sequence (P03951 19-387 partner limits assumed): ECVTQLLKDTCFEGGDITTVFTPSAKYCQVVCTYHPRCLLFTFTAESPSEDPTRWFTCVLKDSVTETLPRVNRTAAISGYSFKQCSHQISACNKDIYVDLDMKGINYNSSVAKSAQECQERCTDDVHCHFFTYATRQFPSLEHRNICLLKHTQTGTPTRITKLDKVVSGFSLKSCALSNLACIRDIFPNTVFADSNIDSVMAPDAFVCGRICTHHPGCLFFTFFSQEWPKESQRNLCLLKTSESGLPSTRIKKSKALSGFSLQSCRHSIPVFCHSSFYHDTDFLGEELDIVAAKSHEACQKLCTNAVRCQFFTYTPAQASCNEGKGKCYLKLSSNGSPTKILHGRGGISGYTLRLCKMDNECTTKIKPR

The assay has as its target T1, purified human Factor XIa (Homo sapiens, UniProt P03951).
T1 construct: purchased Haematologic Technologies
As to the kind of experiment: Factor XIa enzyme inhibition assay (chromogenic substrate S-2366). The format is biochemical. Conditions: substrate S-2366, 50 mM HEPES pH 7.4. The protocol:
The effectiveness of compounds of the present invention as inhibitors of the coagulation factors XIa, VIIa, IXa, Xa, XIIa, plasma kallikrein or thrombin, can be determined using a relevant purified serine protease, respectively, and an appropriate synthetic substrate. The rate of hydrolysis of the chromogenic or fluorogenic substrate by the relevant serine protease was measured both in the absence and presence of compounds of the present invention. […] A decrease in the rate of absorbance or fluorescence change in the presence of inhibitor is indicative of enzyme inhibition. Such methods are known to one skilled in the art. The results of this assay are expressed as the inhibitory constant, Ki.
Values of Ki were determined by allowing the protease to react with the substrate in the presence of the inhibitor. Reactions were allowed to go for periods of 20-180 minutes (depending on the protease) and the velocities (rate of absorbance or fluorescence change versus time) were measured. The following relationships were used to calculate Ki values: (vo−vs)/vs=I/(Ki(1+S/Km)) for a competitive inhibitor with one binding site; or vs/vo=A+((B−A)/1+((IC50/(I)^n))) and Ki=IC50/(1+S/Km) for a competitive inhibitor
For orientation: Ki means a dissociation constant, usually derived from enzyme kinetics or from competition with a known ligand. A low value points to a stronger hold on the target. `COC(=O)Nc1ccc(-c2[nH]c(CNC(=O)/C=C/c3cc(Cl)ccc3-n3cnnn3)nc2Cl)cc1` [Example 1, [4-(5-chloro-2-{[(E)-3-(5-chloro-2-tetrazol-1-yl-phenyl)-acryloylamino]-methyl}-1H-imidazol-4-yl)-phenyl]-carbamic acid methyl ester, trifluoroacetic acid salt]: the Ki is 27.3 nM. As for `COC(=O)Nc1ccc(-c2nc(CNC(=O)CCc3cc(Cl)ccc3-n3cnnn3)[nH]c2Cl)cc1` [Example 2, [4-(5-Chloro-2-{[3-(5-chloro-2-tetrazol-1-yl-phenyl)-propionylamino]-methyl}-1H-imidazol-4-yl)-phenyl]-carbamic acid methyl ester, trifluoroacetic acid salt], the figure is 16.8 nM; as for `O=C(/C=C/c1cc(Cl)ccc1-n1cnnn1)NCc1nc(-c2ccc3c(c2)CCC(=O)N3)c(Cl)[nH]1` [Example 3, (E)-N-[5-Chloro-4-(2-oxo-1,2,3,4-tetrahydro-quinolin-6-yl)-1H-imidazol-2-ylmethyl]-3-(5-chloro-2-tetrazol-1-yl-phenyl)-acrylamide, trifluoroacetic acid salt], 12.1 nM; as for `COC(=O)Nc1ccc(-c2cncc(CNC(=O)/C=C/c3cc(Cl)ccc3-n3cnnn3)c2)cc1` [Example 5, [4-(5-{[(E)-3-(5-Chloro-2-tetrazol-1-yl-phenyl)-acryloylamino]-methyl}-pyridin-3-yl)-phenyl]-carbamic acid methyl ester, trifluoroacetic acid salt], 283 nM. For the molecule `COC(=O)Nc1ccc(-c2cncc(CNC(=O)CCc3cc(Cl)ccc3-n3cnnn3)c2)cc1` [Example 6, [4-(5-{[3-(5-Chloro-2-tetrazol-1-yl-phenyl)-propionylamino]-methyl}-pyridin-3-yl)-phenyl]-carbamic acid methyl ester, trifluoroacetic acid salt], the Ki was 1250 nM.

Molecule `COC(=O)Nc1ccc(-c2ccnc(CNC(=O)/C=C/c3cc(Cl)ccc3-n3cnnn3)c2)cc1` [Example 7, [4-(2-{[(E)-3-(5-Chloro-2-tetrazol-1-yl-phenyl)-acryloylamino]-methyl}-pyridin-4-yl)-phenyl]-carbamic acid methyl ester, trifluoroacetic acid salt] returned a Ki of 475 nM.

Regarding `COC(=O)Nc1ccc(-c2c[nH]c(=O)c(CNC(=O)/C=C/c3cc(Cl)ccc3-n3cnnn3)c2)cc1` [Example 8, [4-(5-{[(E)-3-(5-Chloro-2-tetrazol-1-yl-phenyl)-acryloylamino]-methyl}-6-oxo-1,6-dihydro-pyridin-3-yl)-phenyl]-carbamic acid methyl ester], the Ki turned out to be 277 nM. `COC(=O)Nc1ccc(-c2nc(CN(Cc3ccccc3)C(=O)/C=C/c3cc(Cl)ccc3-n3cnnn3)[nH]c2Cl)cc1` [Example 10, {4-[2-({Benzyl-[(E)-3-(5-chloro-2-tetrazol-1-yl-phenyl)-acryloyl]-amino}-methyl)-5-chloro-1H-imidazol-4-yl]-phenyl}-carbamic acid methyl ester, trifluoroacetic acid salt] registered a Ki of 1510 nM.

For the origin of these results see patent publication US8410155B2, “Arylpropionamide, arylacrylamide, arylpropynamide, or arylmethylurea analogs as factor XIA inhibitors” (Bristol-Myers Squibb Company, priority 2006, dated 2013).
